Results reported in the NIST ThermoML archive (doi:10.1021/je800224k).
± gives the expanded uncertainty stated by the source.

Details: Liquid

CCCCCCCC[n+]1ccn(C)c1.F[P-](F)(F)(F)(F)F [1-octyl-3-methylimidazolium hexafluorophosphate]
Details	mass density [kg/m3]
293.15 K, 101.33 kPa, Vibrating tube method	1240.8 ± 3.8
312.8 K, 10000 kPa, Bellows volumetry	1230 ± 4
312.8 K, 20000 kPa, Bellows volumetry	1236 ± 4
312.8 K, 30000 kPa, Bellows volumetry	1241 ± 4
312.8 K, 40000 kPa, Bellows volumetry	1247 ± 4
312.8 K, 50000 kPa, Bellows volumetry	1252 ± 4
312.8 K, 60000 kPa, Bellows volumetry	1257 ± 4
312.8 K, 70000 kPa, Bellows volumetry	1261 ± 4
312.8 K, 80000 kPa, Bellows volumetry	1266 ± 4
312.8 K, 90000 kPa, Bellows volumetry	1270 ± 4
312.8 K, 100000 kPa, Bellows volumetry	1275 ± 4
312.8 K, 110000 kPa, Bellows volumetry	1279 ± 4
312.8 K, 120000 kPa, Bellows volumetry	1283 ± 4
312.8 K, 130000 kPa, Bellows volumetry	1287 ± 4
312.8 K, 140000 kPa, Bellows volumetry	1291 ± 4
312.8 K, 150000 kPa, Bellows volumetry	1294 ± 4
312.8 K, 160000 kPa, Bellows volumetry	1298 ± 4
312.8 K, 170000 kPa, Bellows volumetry	1302 ± 4
312.8 K, 180000 kPa, Bellows volumetry	1305 ± 4
312.8 K, 190000 kPa, Bellows volumetry	1309 ± 4
312.8 K, 200000 kPa, Bellows volumetry	1312 ± 4
313.15 K, 101.33 kPa, Vibrating tube method	1225 ± 3.8
332.6 K, 10000 kPa, Bellows volumetry	1215 ± 4
332.6 K, 20000 kPa, Bellows volumetry	1221 ± 4
332.6 K, 30000 kPa, Bellows volumetry	1227 ± 4
332.6 K, 40000 kPa, Bellows volumetry	1233 ± 4
332.6 K, 50000 kPa, Bellows volumetry	1238 ± 4
332.6 K, 60000 kPa, Bellows volumetry	1243 ± 4
332.6 K, 70000 kPa, Bellows volumetry	1248 ± 4
332.6 K, 80000 kPa, Bellows volumetry	1253 ± 4
332.6 K, 90000 kPa, Bellows volumetry	1257 ± 4
332.6 K, 100000 kPa, Bellows volumetry	1262 ± 4
332.6 K, 110000 kPa, Bellows volumetry	1266 ± 4
332.6 K, 120000 kPa, Bellows volumetry	1270 ± 4
332.6 K, 130000 kPa, Bellows volumetry	1274 ± 4
332.6 K, 140000 kPa, Bellows volumetry	1278 ± 4
332.6 K, 150000 kPa, Bellows volumetry	1282 ± 4
332.6 K, 160000 kPa, Bellows volumetry	1286 ± 4
332.6 K, 170000 kPa, Bellows volumetry	1290 ± 4
332.6 K, 180000 kPa, Bellows volumetry	1293 ± 4
332.6 K, 190000 kPa, Bellows volumetry	1297 ± 4
332.6 K, 200000 kPa, Bellows volumetry	1300 ± 4
333.15 K, 101.33 kPa, Vibrating tube method	1210 ± 3.7
352.6 K, 10000 kPa, Bellows volumetry	1200 ± 4
352.6 K, 20000 kPa, Bellows volumetry	1207 ± 4
352.6 K, 30000 kPa, Bellows volumetry	1213 ± 4
352.6 K, 40000 kPa, Bellows volumetry	1219 ± 4
352.6 K, 50000 kPa, Bellows volumetry	1224 ± 4
352.6 K, 60000 kPa, Bellows volumetry	1230 ± 4
352.6 K, 70000 kPa, Bellows volumetry	1235 ± 4
352.6 K, 80000 kPa, Bellows volumetry	1240 ± 4
352.6 K, 90000 kPa, Bellows volumetry	1245 ± 4
352.6 K, 100000 kPa, Bellows volumetry	1249 ± 4
352.6 K, 110000 kPa, Bellows volumetry	1254 ± 4
352.6 K, 120000 kPa, Bellows volumetry	1258 ± 4
352.6 K, 130000 kPa, Bellows volumetry	1262 ± 4
352.6 K, 140000 kPa, Bellows volumetry	1266 ± 4
352.6 K, 150000 kPa, Bellows volumetry	1270 ± 4
352.6 K, 160000 kPa, Bellows volumetry	1274 ± 4
352.6 K, 170000 kPa, Bellows volumetry	1278 ± 4
352.6 K, 180000 kPa, Bellows volumetry	1282 ± 4
352.6 K, 190000 kPa, Bellows volumetry	1286 ± 4
352.6 K, 200000 kPa, Bellows volumetry	1289 ± 4
353.15 K, 101.33 kPa, Vibrating tube method	1195.2 ± 3.7
372.8 K, 10000 kPa, Bellows volumetry	1186 ± 4
372.8 K, 20000 kPa, Bellows volumetry	1193 ± 4
372.8 K, 30000 kPa, Bellows volumetry	1199 ± 4
372.8 K, 40000 kPa, Bellows volumetry	1205 ± 4
372.8 K, 50000 kPa, Bellows volumetry	1211 ± 4
372.8 K, 60000 kPa, Bellows volumetry	1217 ± 4
372.8 K, 70000 kPa, Bellows volumetry	1222 ± 4
372.8 K, 80000 kPa, Bellows volumetry	1227 ± 4
372.8 K, 90000 kPa, Bellows volumetry	1232 ± 4
372.8 K, 100000 kPa, Bellows volumetry	1237 ± 4
372.8 K, 110000 kPa, Bellows volumetry	1242 ± 4
372.8 K, 120000 kPa, Bellows volumetry	1246 ± 4
372.8 K, 130000 kPa, Bellows volumetry	1250 ± 4
372.8 K, 140000 kPa, Bellows volumetry	1255 ± 4
372.8 K, 150000 kPa, Bellows volumetry	1259 ± 4
372.8 K, 160000 kPa, Bellows volumetry	1263 ± 4
372.8 K, 170000 kPa, Bellows volumetry	1267 ± 4
372.8 K, 180000 kPa, Bellows volumetry	1271 ± 4
372.8 K, 190000 kPa, Bellows volumetry	1274 ± 4
372.8 K, 200000 kPa, Bellows volumetry	1278 ± 4
392.8 K, 10000 kPa, Bellows volumetry	1171 ± 4
392.8 K, 20000 kPa, Bellows volumetry	1179 ± 4
392.8 K, 30000 kPa, Bellows volumetry	1186 ± 4
392.8 K, 40000 kPa, Bellows volumetry	1192 ± 4
392.8 K, 50000 kPa, Bellows volumetry	1198 ± 4
392.8 K, 60000 kPa, Bellows volumetry	1204 ± 4
392.8 K, 70000 kPa, Bellows volumetry	1209 ± 4
392.8 K, 80000 kPa, Bellows volumetry	1215 ± 4
392.8 K, 90000 kPa, Bellows volumetry	1220 ± 4
392.8 K, 100000 kPa, Bellows volumetry	1225 ± 4
392.8 K, 110000 kPa, Bellows volumetry	1230 ± 4
392.8 K, 120000 kPa, Bellows volumetry	1235 ± 4
392.8 K, 130000 kPa, Bellows volumetry	1239 ± 4
392.8 K, 140000 kPa, Bellows volumetry	1243 ± 4
392.8 K, 150000 kPa, Bellows volumetry	1248 ± 4
392.8 K, 160000 kPa, Bellows volumetry	1252 ± 4
392.8 K, 170000 kPa, Bellows volumetry	1256 ± 4
392.8 K, 180000 kPa, Bellows volumetry	1260 ± 4
392.8 K, 190000 kPa, Bellows volumetry	1264 ± 4
392.8 K, 200000 kPa, Bellows volumetry	1268 ± 4
413 K, 10000 kPa, Bellows volumetry	1157 ± 4
413 K, 20000 kPa, Bellows volumetry	1165 ± 4
413 K, 30000 kPa, Bellows volumetry	1172 ± 4
413 K, 40000 kPa, Bellows volumetry	1179 ± 4
413 K, 50000 kPa, Bellows volumetry	1185 ± 4
413 K, 60000 kPa, Bellows volumetry	1191 ± 4
413 K, 70000 kPa, Bellows volumetry	1197 ± 4
413 K, 80000 kPa, Bellows volumetry	1203 ± 4
413 K, 90000 kPa, Bellows volumetry	1208 ± 4
413 K, 100000 kPa, Bellows volumetry	1213 ± 4
413 K, 110000 kPa, Bellows volumetry	1218 ± 4
413 K, 120000 kPa, Bellows volumetry	1223 ± 4
413 K, 130000 kPa, Bellows volumetry	1228 ± 4
413 K, 140000 kPa, Bellows volumetry	1232 ± 4
413 K, 150000 kPa, Bellows volumetry	1237 ± 4
413 K, 160000 kPa, Bellows volumetry	1241 ± 4
413 K, 170000 kPa, Bellows volumetry	1245 ± 4
413 K, 180000 kPa, Bellows volumetry	1249 ± 4
413 K, 190000 kPa, Bellows volumetry	1253 ± 4
413 K, 200000 kPa, Bellows volumetry	1257 ± 4
432.7 K, 10000 kPa, Bellows volumetry	1144 ± 4
432.7 K, 20000 kPa, Bellows volumetry	1152 ± 4
432.7 K, 30000 kPa, Bellows volumetry	1159 ± 4
432.7 K, 40000 kPa, Bellows volumetry	1166 ± 4
432.7 K, 50000 kPa, Bellows volumetry	1173 ± 4
432.7 K, 60000 kPa, Bellows volumetry	1179 ± 4
432.7 K, 70000 kPa, Bellows volumetry	1185 ± 4
432.7 K, 80000 kPa, Bellows volumetry	1191 ± 4
432.7 K, 90000 kPa, Bellows volumetry	1197 ± 4
432.7 K, 100000 kPa, Bellows volumetry	1202 ± 4
432.7 K, 110000 kPa, Bellows volumetry	1207 ± 4
432.7 K, 120000 kPa, Bellows volumetry	1212 ± 4
432.7 K, 130000 kPa, Bellows volumetry	1217 ± 4
432.7 K, 140000 kPa, Bellows volumetry	1222 ± 4
432.7 K, 150000 kPa, Bellows volumetry	1226 ± 4
432.7 K, 160000 kPa, Bellows volumetry	1231 ± 4
432.7 K, 170000 kPa, Bellows volumetry	1235 ± 4
432.7 K, 180000 kPa, Bellows volumetry	1239 ± 4
432.7 K, 190000 kPa, Bellows volumetry	1243 ± 4
432.7 K, 200000 kPa, Bellows volumetry	1247 ± 4
452.5 K, 10000 kPa, Bellows volumetry	1130 ± 3
452.5 K, 20000 kPa, Bellows volumetry	1138 ± 4
452.5 K, 30000 kPa, Bellows volumetry	1146 ± 4
452.5 K, 40000 kPa, Bellows volumetry	1153 ± 4
452.5 K, 50000 kPa, Bellows volumetry	1160 ± 4
452.5 K, 60000 kPa, Bellows volumetry	1167 ± 4
452.5 K, 70000 kPa, Bellows volumetry	1173 ± 4
452.5 K, 80000 kPa, Bellows volumetry	1179 ± 4
452.5 K, 90000 kPa, Bellows volumetry	1185 ± 4
452.5 K, 100000 kPa, Bellows volumetry	1191 ± 4
452.5 K, 110000 kPa, Bellows volumetry	1196 ± 4
452.5 K, 120000 kPa, Bellows volumetry	1201 ± 4
452.5 K, 130000 kPa, Bellows volumetry	1206 ± 4
452.5 K, 140000 kPa, Bellows volumetry	1211 ± 4
452.5 K, 150000 kPa, Bellows volumetry	1216 ± 4
452.5 K, 160000 kPa, Bellows volumetry	1220 ± 4
452.5 K, 170000 kPa, Bellows volumetry	1225 ± 4
452.5 K, 180000 kPa, Bellows volumetry	1229 ± 4
452.5 K, 190000 kPa, Bellows volumetry	1233 ± 4
452.5 K, 200000 kPa, Bellows volumetry	1237 ± 4
472.3 K, 10000 kPa, Bellows volumetry	1116 ± 3
472.3 K, 20000 kPa, Bellows volumetry	1125 ± 3
472.3 K, 30000 kPa, Bellows volumetry	1133 ± 3
472.3 K, 40000 kPa, Bellows volumetry	1141 ± 4
472.3 K, 50000 kPa, Bellows volumetry	1148 ± 4
472.3 K, 60000 kPa, Bellows volumetry	1155 ± 4
472.3 K, 70000 kPa, Bellows volumetry	1162 ± 4
472.3 K, 80000 kPa, Bellows volumetry	1168 ± 4
472.3 K, 90000 kPa, Bellows volumetry	1174 ± 4
472.3 K, 100000 kPa, Bellows volumetry	1180 ± 4
472.3 K, 110000 kPa, Bellows volumetry	1185 ± 4
472.3 K, 120000 kPa, Bellows volumetry	1191 ± 4
472.3 K, 130000 kPa, Bellows volumetry	1196 ± 4
472.3 K, 140000 kPa, Bellows volumetry	1201 ± 4
472.3 K, 150000 kPa, Bellows volumetry	1205 ± 4
472.3 K, 160000 kPa, Bellows volumetry	1210 ± 4
472.3 K, 170000 kPa, Bellows volumetry	1215 ± 4
472.3 K, 180000 kPa, Bellows volumetry	1219 ± 4
472.3 K, 190000 kPa, Bellows volumetry	1223 ± 4
472.3 K, 200000 kPa, Bellows volumetry	1228 ± 4
